The NIST ThermoML archive (doi:10.1016/j.fluid.2018.08.017)
± gives the expanded uncertainty stated by the source.

Key:
[1] = Liquid; for mass density: Vibrating tube method; for speed of sound: Single path-length method
[2] = refractive index (Na D-line) (dimensionless); conditions: 101.33 kPa, Liquid, Standard Abbe refractometry
[3] = wn = mass fraction of the nth substance listed; conditions: 101 kPa, Liquid, w1 = 1; for speed of sound: Single path-length method; for mass density: Vibrating tube method

In the case of CCCCCC [hexane], the mass density ([1]; 313.15 K, 101.33 kPa) is reported as 641.2 ± 0.3 kg/m3 and the refractive index ([2]; 298.15 K) is reported as 1.372 ± 0.001.

CCCCn1cc[n+](C)c1.F[B-](F)(F)F [1-butyl-3-methylimidazolium tetrafluoroborate] + CN1CCCC1=O showed a speed of sound ([3]; 293.15 K) of 1576.7 ± 2.1 m/s, a mass density ([3]; 293.15 K) of 1206 ± 1.3 kg/m3 and a viscosity ([3]; 293.15 K) of 129.34 ± 13 mPa·s. It also gave a speed of sound ([3]; 298.15 K) of 1564.7 ± 2.1 m/s, a mass density ([3]; 298.15 K) of 1202.4 ± 1.3 kg/m3 and a viscosity ([3]; 298.15 K) of 98.95 ± 6.9 mPa·s. For the same compound, the speed of sound ([3]; 303.15 K) was 1552.8 ± 2.1 m/s, the mass density ([3]; 303.15 K) was 1198.8 ± 1.3 kg/m3 and the viscosity ([3]; 303.15 K) was 77 ± 3.5 mPa·s. For the same compound, the speed of sound ([3]; 308.15 K) was 1541.2 ± 2.1 m/s, the mass density ([3]; 308.15 K) was 1195.2 ± 1.3 kg/m3 and the viscosity ([3]; 308.15 K) was 60.9 ± 1.4 mPa·s. The speed of sound ([3]; 313.15 K) was 1529.6 ± 2.1 m/s, the mass density ([3]; 313.15 K) was 1191.7 ± 1.3 kg/m3 and the viscosity ([3]; 313.15 K) was 49.2 ± 1.3 mPa·s. It also gave a speed of sound ([3]; 318.15 K) of 1518.2 ± 2.1 m/s, a mass density ([3]; 318.15 K) of 1188.1 ± 1.2 kg/m3 and a viscosity ([3]; 318.15 K) of 40.27 ± 1 mPa·s. For the same compound, the speed of sound ([3]; 323.15 K) was 1506.9 ± 2.1 m/s, the mass density ([3]; 323.15 K) was 1184.6 ± 1.2 kg/m3 and the viscosity ([3]; 323.15 K) was 33.44 ± 0.85 mPa·s. The speed of sound ([3]; 328.15 K) was 1495.7 ± 2.1 m/s, the mass density ([3]; 328.15 K) was 1181.1 ± 1.2 kg/m3 and the viscosity ([3]; 328.15 K) was 28.12 ± 0.72 mPa·s. It also gave a speed of sound ([3]; 333.15 K) of 1484.5 ± 2.1 m/s, a mass density ([3]; 333.15 K) of 1177.6 ± 1.2 kg/m3 and a viscosity ([3]; 333.15 K) of 23.94 ± 0.61 mPa·s. It also gave a speed of sound ([3]; 338.15 K) of 1473.2 ± 2.1 m/s, a mass density ([3]; 338.15 K) of 1174.2 ± 1.2 kg/m3 and a viscosity ([3]; 338.15 K) of 20.62 ± 0.53 mPa·s. The speed of sound ([3]; 343.15 K) was 1461.7 ± 2.1 m/s, the mass density ([3]; 343.15 K) was 1170.7 ± 1.2 kg/m3 and the viscosity ([3]; 343.15 K) was 17.92 ± 0.46 mPa·s.

Work on CN1CCCC1=O [N-methylpyrrolidone] yielded a viscosity ([1]; 293.15 K, 101 kPa) of 1.786 ± 0.049 mPa·s, a speed of sound ([1]; 293.15 K, 101 kPa) of 1565.7 ± 0.9 m/s and a mass density ([1]; 293.15 K, 101 kPa) of 1034.1 ± 0.2 kg/m3. It also gave a viscosity ([1]; 298.15 K, 101 kPa) of 1.693 ± 0.047 mPa·s, a speed of sound ([1]; 298.15 K, 101 kPa) of 1546.1 ± 0.9 m/s and a mass density ([1]; 298.15 K, 101 kPa) of 1029.7 ± 0.2 kg/m3. For the same compound, the viscosity ([1]; 303.15 K, 101 kPa) was 1.564 ± 0.044 mPa·s, the speed of sound ([1]; 303.15 K, 101 kPa) was 1526.7 ± 0.9 m/s and the mass density ([1]; 303.15 K, 101 kPa) was 1025.2 ± 0.2 kg/m3. The viscosity ([1]; 308.15 K, 101 kPa) was 1.448 ± 0.042 mPa·s, the speed of sound ([1]; 308.15 K, 101 kPa) was 1507.5 ± 0.9 m/s and the mass density ([1]; 308.15 K, 101 kPa) was 1020.8 ± 0.2 kg/m3. It also gave a viscosity ([1]; 313.15 K, 101 kPa) of 1.346 ± 0.039 mPa·s, a speed of sound ([1]; 313.15 K, 101 kPa) of 1488.3 ± 0.9 m/s and a mass density ([1]; 313.15 K, 101 kPa) of 1016.3 ± 0.2 kg/m3. For the same compound, the viscosity ([1]; 318.15 K, 101 kPa) was 1.258 ± 0.037 mPa·s, the speed of sound ([1]; 318.15 K, 101 kPa) was 1469.2 ± 0.9 m/s and the mass density ([1]; 318.15 K, 101 kPa) was 1011.9 ± 0.2 kg/m3. It also gave a viscosity ([1]; 323.15 K, 101 kPa) of 1.176 ± 0.035 mPa·s, a speed of sound ([1]; 323.15 K, 101 kPa) of 1450.4 ± 0.9 m/s and a mass density ([1]; 323.15 K, 101 kPa) of 1007.4 ± 0.2 kg/m3. The viscosity ([1]; 328.15 K, 101 kPa) was 1.103 ± 0.033 mPa·s, the speed of sound ([1]; 328.15 K, 101 kPa) was 1431.4 ± 0.9 m/s and the mass density ([1]; 328.15 K, 101 kPa) was 1002.9 ± 0.2 kg/m3. It also gave a viscosity ([1]; 333.15 K, 101 kPa) of 1.037 ± 0.032 mPa·s, a speed of sound ([1]; 333.15 K, 101 kPa) of 1412.8 ± 0.9 m/s and a mass density ([1]; 333.15 K, 101 kPa) of 998.4 ± 0.2 kg/m3. The viscosity ([1]; 338.15 K, 101 kPa) was 0.9769 ± 0.03 mPa·s, the speed of sound ([1]; 338.15 K, 101 kPa) was 1394.4 ± 0.9 m/s and the mass density ([1]; 338.15 K, 101 kPa) was 993.9 ± 0.2 kg/m3. It also gave a viscosity ([1]; 343.15 K, 101 kPa) of 0.923 ± 0.029 mPa·s, a speed of sound ([1]; 343.15 K, 101 kPa) of 1376 ± 0.9 m/s and a mass density ([1]; 343.15 K, 101 kPa) of 989.4 ± 0.2 kg/m3. It also gave a refractive index ([2]; 298.15 K) of 1.469 ± 0.001.

CCCCn1cc[n+](C)c1.F[B-](F)(F)F [1-butyl-3-methylimidazolium tetrafluoroborate] showed a viscosity ([1]; 293.15 K, 101 kPa) of 129.34 ± 13 mPa·s, a speed of sound ([1]; 293.15 K, 101 kPa) of 1576.7 ± 2.1 m/s and a mass density ([1]; 293.15 K, 101 kPa) of 1206 ± 1.3 kg/m3. It also gave a viscosity ([1]; 298.15 K, 101 kPa) of 98.95 ± 6.9 mPa·s, a speed of sound ([1]; 298.15 K, 101 kPa) of 1564.7 ± 2.1 m/s and a mass density ([1]; 298.15 K, 101 kPa) of 1202.4 ± 1.3 kg/m3. The viscosity ([1]; 303.15 K, 101 kPa) was 77 ± 3.5 mPa·s, the speed of sound ([1]; 303.15 K, 101 kPa) was 1552.8 ± 2.1 m/s and the mass density ([1]; 303.15 K, 101 kPa) was 1198.8 ± 1.3 kg/m3. It also gave a viscosity ([1]; 308.15 K, 101 kPa) of 60.9 ± 1.4 mPa·s, a speed of sound ([1]; 308.15 K, 101 kPa) of 1541.2 ± 2.1 m/s and a mass density ([1]; 308.15 K, 101 kPa) of 1195.2 ± 1.3 kg/m3. The viscosity ([1]; 313.15 K, 101 kPa) was 49.2 ± 1.3 mPa·s, the speed of sound ([1]; 313.15 K, 101 kPa) was 1529.6 ± 2.1 m/s and the mass density ([1]; 313.15 K, 101 kPa) was 1191.7 ± 1.3 kg/m3. The viscosity ([1]; 318.15 K, 101 kPa) was 40.27 ± 1 mPa·s, the speed of sound ([1]; 318.15 K, 101 kPa) was 1518.2 ± 2.1 m/s and the mass density ([1]; 318.15 K, 101 kPa) was 1188.1 ± 1.2 kg/m3. For the same compound, the mass density ([1]; 318.15 K, 101.33 kPa) was 1188.2 ± 1.2 kg/m3, the viscosity ([1]; 323.15 K, 101 kPa) was 33.44 ± 0.85 mPa·s and the speed of sound ([1]; 323.15 K, 101 kPa) was 1506.9 ± 2.1 m/s. The mass density ([1]; 323.15 K, 101 kPa) was 1184.6 ± 1.2 kg/m3, the viscosity ([1]; 328.15 K, 101 kPa) was 28.12 ± 0.72 mPa·s and the speed of sound ([1]; 328.15 K, 101 kPa) was 1495.7 ± 2.1 m/s. For the same compound, the mass density ([1]; 328.15 K, 101 kPa) was 1181.1 ± 1.2 kg/m3, the viscosity ([1]; 333.15 K, 101 kPa) was 23.94 ± 0.61 mPa·s and the speed of sound ([1]; 333.15 K, 101 kPa) was 1484.5 ± 2.1 m/s. It also gave a mass density ([1]; 333.15 K, 101 kPa) of 1177.6 ± 1.2 kg/m3, a viscosity ([1]; 338.15 K, 101 kPa) of 20.62 ± 0.53 mPa·s and a speed of sound ([1]; 338.15 K, 101 kPa) of 1473.2 ± 2.1 m/s. For the same compound, the mass density ([1]; 338.15 K, 101 kPa) was 1174.2 ± 1.2 kg/m3, the viscosity ([1]; 343.15 K, 101 kPa) was 17.92 ± 0.46 mPa·s and the speed of sound ([1]; 343.15 K, 101 kPa) was 1461.7 ± 2.1 m/s. For the same compound, the mass density ([1]; 343.15 K, 101 kPa) was 1170.7 ± 1.2 kg/m3 and the refractive index ([2]; 293.15 K) was 1.423 ± 0.001.
